# Assay results from patent publication US9956181B2, “Composition of nanoformulated lycopene and method of using the composition” (priority 2015, dated 2018).
# Test system: ovariectomized (OVX) rats
# Test: OVX rat study: body weight, uterine weight, body composition by DXA, organ findings
# Format: in vivo, Wistar rats
# Conditions: 12 weeks; for decrease in fat mass (body composition by DXA): higher dosages of lycopene
# Experimental: A total of 264 Wistar female rats, ˜6 months old, were supplied by the Animal House at King Fahd Medical Research Center (KFMRC), KAU. Rats were housed in individual cages and maintained at 22° C. with a 12-h light/dark cycle. During the study period, rats were given standard rodent chow diet ad libitum (commercial rat cubes containing approximately 18% protein, 3% fat, 77% carbohydrate, and 2% of an inorganic-salt mixture with a vitamin supplement by weight, supplied by Grain Silos and Flour Mills Organization, Jeddah, Saudi Arabia) and water until the onset of intervention. Prior to surgery, rats were anesthetized with ketamine [(10% ketamine hydrochloride (80 mg/kg body weight), Cayman Chemical, Michigan, USA] and xylazine [(2% xylazine hydrochloride, 10 mg/kg body weight), Sigma-Aldrich Co., St. Louis, USA]. A single longitudinal skin incision was made on the dorsal midline at the level of the kidneys and both ovaries were ligated and removed to produce an ovariectomy in all OVX group animals. A SHAM-operated group, acting as a negative control for the effect of ovariectomy on bone parameters, underwent bilateral laparotomy, during which the ovaries were exposed but remained intact. […] The lycopene-supplemented groups were given lycopene (15, 30 and 45 mg/kg body weight per day) dissolved in corn oil by daily intra-gastric administration for the experimental period of 12 weeks. The SHAM, OVX and ALN control groups were given the same volume of corn oil without lycopene treatment. […] A 12-week randomized placebo-controlled study in order to examine the protective effects of lycopene supplementation on bone mass and fragility in OVX rats was concluded. Prior to surgery, body weight and bone mineral density (BMD) were obtained for all animals. Rats were randomized using a computer-generated randomization code into one of six groups: (1) sham-operated (SHAM; n=44); (2) ovariectomized control (OVX; n=44); (3) OVX lycopene-supplemented (15 mg/kg body weight per day) (n=44); (4) OVX lycopene-supplemented (30 mg/kg body weight per day) (n=44); (5) OVX lycopene-supplemented (45 mg/kg body weight per day) (n=44) and (6) OVX alendronate-treated (ALN) [2.0 μg/kg body weight per day subcutaneously (sc)] (n=44). Alendronate is an anti-resorptive agent for the treatment of osteoporosis and was used as a positive therapy control. […] All OVX groups were pair-fed with the SHAM group throughout the study to avoid the possible effects of ovariectomy-induced over-consumption and subsequent excessive weight gain. Treatment started 1 week after the surgery: this period of rest allowed the rats to recover from the stress associated with the surgery. In addition, after surgery, rats were administered Diclofenac sodium injection (20 mg/Kg body weight) to reduce the pain associated with the surgery. Rats were weighed and examined daily. Blood and urine samples were collected at baseline, during, and at the end of treatment for measurement of various BTMs and other analytes. In vivo dual energy x-ray absorptiometry (DXA) measurements were made for the bone mineral content (BMC) and BMD of the whole body, lumbar spine (L1-L4), and the right humerus, together with body composition at 12 weeks of treatment. One day following the post-test DXA assessments (at 12 weeks, 16 rats in each group), animals were euthanized by decapitation and right and left femurs were extracted for further biomechanical and histomorphometric analyses. Blood and urine samples were collected from all experimental groups to measure biochemical analytes and BTMs at baseline and 4, 8, and 12 weeks of treatment. Peripheral Quantitative CT (pQCT) scans were made of the proximal tibia metaphysis and the diaphysis. In vivo micro-computed tomographic (μCT) scans of the proximal tibia were obtained during the treatment period to monitor changes in bone mass and microarchitecture. […]
structure (smiles),measurement,setting,value
CC(C)=CCC/C(C)=C/C=C/C(C)=C/C=C/C(C)=C/C=C/C=C(C)/C=C/C=C(C)/C=C/C=C(\C)CCC=C(C)C [lycopene],decrease in fat mass (body composition by DXA),"OVX rats, first value (presumably 30 mg/kg/day)",8.9%
same,decrease in fat mass (body composition by DXA),"OVX rats, second value (presumably 45 mg/kg/day)",16.4%
same,"final body weight, body weight gain, or food intake","OVX rats, lycopene 15, 30, 45 mg/kg/day oral",did not significantly influence
same,uterine weight compared to OVX alone,"OVX rats, lycopene 30 and 45 mg/kg body weight per day",significantly increased
same,OVX-induced body weight gain and fat accumulation,"OVX rats, lycopene treatment",prevented
same,"degeneration or hypertrophy of internal organs, including muscle and bone",lycopene-treated OVX rats,No degeneration or hypertrophy
